Where two headings read alike, the source gives them in different places. Marks after values point to notes of the source that are not given here.
Assays:
SERT = conditions: ref Pehrson et al., 2015; cited from earlier work
mice = tested on: mice; design: method as in Hashimoto et al. (2007); conditions: ref Hashimoto et al. (2007), cited from earlier work; for effect on deficits in OR performance: repeated administration
Long-Evans rats [1] = assay: Attentional set-shifting task (AST) in subchronic PCP-treated rats; type: in vivo, rat; conditions: for trials to criterion vs vehicle/vehicle or PCP/vehicle, EDR discrimination / trials to criterion vs PCP/vehicle, ED discrimination: subPCP-treated rats
Procedure: Subchronic PCP treatment: The subPCP administration regimen used in rats was conducted as described in ([Goetghebeur and Dias, 2009]), which is a reliable method for inducing deficits in our hands. Rats in the subPCP experiments received injections of 5 mg/mL PCP or vehicle (saline) s.c. at a 1 mL/kg injection volume twice per day for 7 days. […] The mouse subPCP regimen was conducted as described in [Pedersen et al. (2014)]. Briefly, mice received vehicle or PCP (1.3 mg/mL concentration, 10 mL/kg injection volume) s.c once per day for 14 days followed by a 7-day washout prior to experimentation.
Each test used male Long-Evans rats (Charles River, United States) aged 5–6 weeks when arriving at the research facility.
The attentional set-shifting test (AST) methods used here were adapted from [Goetghebeur and Dias (2009)]. The apparatus used for the AST test was a 44 cm × 64 cm × 30 cm black non-transparent Perspex test box, divided into 3 equal-sized areas (a starting area separated from a choice area subdivided in two). In the choice area, two 11 cm diameter terracotta pots were placed recessed into the box floor (with a 2 cm lip remaining above the floor) and separated by a divider. Odor (oils from The Body Shop®, United Kingdom) and media cues (not previously presented to the rats) were added to the pots.
Beginning on day 3 after the cessation of PCP administration, rats were subjected to a habituation period and trained to dig for a diet reward (half a Honey Loop cereal, Nestlé®) in terracotta pots filled with sawdust. On day 7 of PCP washout, rats were subjected to a single training session in which they were required to discriminate between two pots in order to find the reward. These discriminations were either based on differences in the digging media or the pot’s odor. On day 8 rats were presented with a series of increasingly difficult discriminations: a simple discrimination (SD), a compound discrimination (CD), two intra-dimensional shifts (ID1, ID2), an intra-dimensional shift reversal (ID2R), an extra-dimensional shift (ED) and an extra-dimensional shift reversal (EDR; see Table 1). Rats were required to meet a training criterion before moving on to a new discrimination type (for specifics, see Statistical Analysis, below).
The first trial of each discrimination stage was a discovery trial in which rats were allowed to dig in both pots, and to self-correct if digging in the wrong pot. Rats were only given one discovery trial. The discovery trial was included in the trials to criterion if the rat dug first in the correct pot, but not if the rat self-corrected an incorrect initial dig.
In the acute vortioxetine study, prior to the start of behavioral experiments on Day 8 of washout from PCP treatment, animals were randomly administered either 20% CD (Veh), […], or 64 mg/kg modafinil 30 min p.o. as described above (included as a positive control). Thus, the treatment groups in the acute vortioxetine study were as follows: Veh/Veh, PCP/Veh, PCP/1 mg/kg vortioxetine, PCP/3 mg/kg vortioxetine, PCP/10 mg/kg vortioxetine, or PCP/64 mg/kg modafinil.
Food dosing lasted from the first day of sub-chronic PCP administration and until the last day of the washout period (total of 14 days). After the end of the washout period where behavioral testing started, rats were fed with the same conditioned diet, however, under food restriction (∼11 g of diet per day per rat). In addition, some PCP-treated animals were fed vehicle food, but received acute injections of either 10 mg/kg vortioxetine, or 64 mg/kg modafinil, as described above. The treatment groups for the subchronic vortioxetine administration study were as follows: Veh/Veh, PCP/Veh, PCP/0.22 g/kg vortioxetine food, PCP/1.8 g/kg vortioxetine food, PCP/10 mg/kg vortioxetine 1 h s.c., or PCP/64 mg/kg 30 min p.o.
A third experiment was conducted to examine the effects of acute SERT inhibition or 5-HT3 receptor antagonism on subPCP-induced AST impairments. […]

GABAA receptor [2] = assay: Ex vivo autoradiography, GABAA receptor saturation binding ([3H]muscimol), medial prefrontal cortex; design: species or system rat; conditions: rat medial prefrontal cortex
From the text: (§1) Rats used in ex vivo autoradiography (EVA) experiments were randomly assigned to one of four experimental groups characterized by either subchronic saline or PCP (as described above) along with either vehicle or vortioxetine-infused food (1.8 g vortioxetine/kg food weight, as described in the attentional set shifting task). On day 8 of PCP withdrawal, rats were anesthetized using CO2 and killed by decapitation. Brains were quickly and gently removed from the skull, flash frozen on powdered dry ice, and stored at -20°C until sectioning. Later, 12 μm coronal sections were collected from an area ranging from approximately +4.2 mm to +2.3 mm anterior to Bregma ([Paxinos and Watson, 1998]) using a cryostat (MicroM, Germany) and were thaw-mounted on glass microscope slides. This range of coronal slices was chosen in order to study the prelimbic and infralimbic subregions of the medial prefrontal cortex, given the importance of these regions in tests of executive function such as the attentional set shifting task ([Ng et al., 2007]). After the tissue mounted on the microscope slides had dried thoroughly (in order to reduce damage from freezing), slides were packed into slide boxes with desiccator pellets, and stored at -20°C for use in EVA saturation binding and competition experiments.
(§2) Each of the EVA procedures used in this study are variations on a similar theme. On the day of an experiment, slide-boxes were defrosted under a constant stream of air at room temperature until the boxes were dry and equilibrated with the environment in terms of temperature. This step was undertaken in order to ensure brain tissue was not damaged by frosting due to a sudden change in humidity. Prior to any binding experiments, slides were preincubated in the appropriate preincubation buffer and dried at room temperature. Subsequently, tissue was incubated in an assay buffer containing a radioligand appropriate for the receptor of interest, then rinsed in assay buffer, and dried overnight in a vacuum desiccator. Specific information on the contents of the preincubation buffers, assay buffers and other assay conditions are listed in Table 2. Finally, slides were opposed to a tritium-sensitive phosphor screen (Fuji imaging plate, GE Healthcare, Pittsburgh, PA, United States) for 5 days before being read in a phosphorimager (Typhoon FLA7000, GE Healthcare). Analysis methods are listed below under statistical analyses.
(§3) In saturation binding experiments, the concentration of the relevant radioligand in the assay buffer was systematically varied in order to determine the KD and Bmax of the receptor in question. At each radioligand concentration, the non-specific binding was determined on a separate slide by including a high concentration of a non-radioactive competitor ligand in the assay buffer along with the radioligand. For GABAA receptor saturation binding experiments, [^3H]muscimol was examined in quarter log steps ranging from 0.56 to 300 nM. For GABAB receptor saturation binding experiments, [^3H]CGP54626 was examined in quarter log steps ranging from 0.17 to 100 nM.
For saturation binding studies, the primary dependent measures were pKD and Bmax. […] A linear regression was performed to determine the relationship between intensity and bound radioactivity (measured on the standards in units of μCi/g). […] These optical intensity values were transformed into bound radioactivity (expressed as nCi/mg) measurements by interpolation from the standard curve noted above. […]

sigma 1 receptors = target: sigma 1 receptors; design: method as in Sanchez et al., 2003; conditions: ref Sanchez et al., 2003; cited from earlier work
GABAA receptor [3] = tested on: GABAA receptor; design: method as in Kim et al., 2000; conditions: i.c.v. infusion 1 pmol/10 μL/h for 7 days; cortex and CA3 sub-region of the hippocampus; ref Kim et al., 2000; cited from earlier work
Long-Evans rats [4] = tested on: Long-Evans rats; design: method as in Redrobe et al., 2012; conditions: same subPCP model; ref Redrobe et al., 2012; cited from earlier work
GABAB receptor = target: T1, GABAB receptor (Rattus norvegicus, UniProt Q9Z0U4); assay: Ex vivo autoradiography, GABAB receptor saturation binding ([3H]CGP54626), medial prefrontal cortex; conditions: rat medial prefrontal cortex; for GABAB receptors Bmax: [3H]CGP54626
T1 construct: 12 μm coronal sections were collected from an area ranging from approximately +4.2 mm to +2.3 mm anterior to Bregma; from tissue; host or cells: rat brain cryosections, medial prefrontal cortex (prelimbic and infralimbic)
T1 sequence (Q9Z0U4 17-960 limits assumed): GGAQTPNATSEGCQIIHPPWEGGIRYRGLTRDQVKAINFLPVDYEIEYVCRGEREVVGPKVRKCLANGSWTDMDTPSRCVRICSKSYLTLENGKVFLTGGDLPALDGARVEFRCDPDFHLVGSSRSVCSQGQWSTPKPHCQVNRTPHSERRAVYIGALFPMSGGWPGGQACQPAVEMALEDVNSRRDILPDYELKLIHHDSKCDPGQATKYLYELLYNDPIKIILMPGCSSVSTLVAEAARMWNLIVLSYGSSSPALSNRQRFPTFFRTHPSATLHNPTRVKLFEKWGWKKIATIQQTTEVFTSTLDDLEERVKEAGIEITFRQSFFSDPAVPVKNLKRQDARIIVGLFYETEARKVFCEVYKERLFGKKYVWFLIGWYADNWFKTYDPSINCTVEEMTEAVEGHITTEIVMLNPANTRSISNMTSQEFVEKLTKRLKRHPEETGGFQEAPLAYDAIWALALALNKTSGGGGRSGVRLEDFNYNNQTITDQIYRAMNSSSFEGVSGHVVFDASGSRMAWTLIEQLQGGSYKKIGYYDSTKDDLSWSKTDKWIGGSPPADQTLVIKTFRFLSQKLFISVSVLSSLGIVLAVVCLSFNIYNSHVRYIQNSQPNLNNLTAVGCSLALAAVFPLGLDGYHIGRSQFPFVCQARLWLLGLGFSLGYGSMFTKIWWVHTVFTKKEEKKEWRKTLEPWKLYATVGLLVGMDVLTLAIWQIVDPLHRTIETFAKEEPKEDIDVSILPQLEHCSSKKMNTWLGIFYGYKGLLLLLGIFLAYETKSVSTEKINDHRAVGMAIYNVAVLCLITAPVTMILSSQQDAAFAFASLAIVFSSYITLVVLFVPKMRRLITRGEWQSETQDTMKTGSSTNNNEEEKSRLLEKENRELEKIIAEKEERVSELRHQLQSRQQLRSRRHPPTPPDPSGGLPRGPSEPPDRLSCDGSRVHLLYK
T1 sequence (O88871 41-940 partner): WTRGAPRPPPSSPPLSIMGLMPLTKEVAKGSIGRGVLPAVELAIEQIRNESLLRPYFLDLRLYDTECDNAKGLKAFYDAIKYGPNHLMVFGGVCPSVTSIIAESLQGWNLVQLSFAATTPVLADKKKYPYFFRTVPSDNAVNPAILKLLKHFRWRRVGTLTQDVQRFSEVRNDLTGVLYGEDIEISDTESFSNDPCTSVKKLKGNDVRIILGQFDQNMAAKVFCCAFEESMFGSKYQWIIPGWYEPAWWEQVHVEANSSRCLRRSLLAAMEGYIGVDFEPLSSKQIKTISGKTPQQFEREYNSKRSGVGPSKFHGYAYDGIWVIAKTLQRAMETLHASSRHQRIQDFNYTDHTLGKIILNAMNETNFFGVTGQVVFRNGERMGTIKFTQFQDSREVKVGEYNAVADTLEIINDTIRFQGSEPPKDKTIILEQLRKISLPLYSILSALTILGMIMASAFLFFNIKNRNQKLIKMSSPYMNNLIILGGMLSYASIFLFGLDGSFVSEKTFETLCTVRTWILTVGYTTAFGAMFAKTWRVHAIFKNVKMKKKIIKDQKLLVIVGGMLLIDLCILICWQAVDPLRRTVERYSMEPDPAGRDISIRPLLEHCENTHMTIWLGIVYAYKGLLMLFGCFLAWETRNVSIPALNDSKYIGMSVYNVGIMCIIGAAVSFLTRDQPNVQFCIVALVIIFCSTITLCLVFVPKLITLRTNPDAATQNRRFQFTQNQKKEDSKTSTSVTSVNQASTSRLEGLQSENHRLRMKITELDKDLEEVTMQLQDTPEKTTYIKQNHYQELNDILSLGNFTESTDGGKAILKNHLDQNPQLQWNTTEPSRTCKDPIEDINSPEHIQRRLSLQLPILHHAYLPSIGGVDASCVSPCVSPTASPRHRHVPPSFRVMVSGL
From the text: as §1, §2, §3
For saturation binding studies, the primary dependent measures were pKD and Bmax. First, a standard curve was generated by measuring optical intensity from a slide of tritium standards (American Radiolabeled Chemicals, St. Louis, MO, United States) included in the slide cassette during exposure. A linear regression was performed to determine the relationship between intensity and bound radioactivity (measured on the standards in units of μCi/g). Next, average intensity values from the non-specific bound condition for each concentration of radioligand was subtracted from intensity values from the total bound condition to produce a measure of specific binding for each radioligand concentration. These optical intensity values were transformed into bound radioactivity (expressed as nCi/mg) measurements by interpolation from the standard curve noted above. […]

[5] = acute vortioxetine study, 64 mg/kg 30 min p.o., vs PCP/Veh
[6] = subchronic vortioxetine study, acute 64 mg/kg, p < 0.001

COCCCC/C(=N\OCCN)c1ccc(C(F)(F)F)cc1 [fluvoxamine]
SERT occupancy ED80 (SERT): ≈ 1.8 mg/kg
effect on deficits in OR performance (mice): reversed deficits
effect on subPCP-induced impairments in OR performance (mice; single supra-pharmacological dose 20 mg/kg): improved

Cc1nccn1CC1CCc2c(c3ccccc3n2C)C1=O (centres unmarked) [ondansetron]
trials to criterion vs vehicle/vehicle or PCP/vehicle, EDR discrimination (Long-Evans rats [1]; acute 1.6 mg/kg 1 h s.c.): did not differ
trials to criterion vs PCP/vehicle, ED discrimination (Long-Evans rats [1]; acute 1.6 mg/kg 1 h s.c., p < 0.05): significant reductions

NCc1cc(=O)[nH]o1 [[^3H]muscimol]
GABAA receptors pKD ([3H]muscimol) (GABAA receptor [2]; treatment group PCP/Veh): 7.8 ± 0.03
GABAA receptors pKD ([3H]muscimol) (GABAA receptor [2]; treatment group PCP/Vor): 7.6 ± 0.03^a,b,c
GABAA receptors pKD ([3H]muscimol) (GABAA receptor [2]; treatment group Veh/Veh): 7.7 ± 0.03
GABAA receptors pKD ([3H]muscimol) (GABAA receptor [2]; treatment group Veh/Vor): 7.8 ± 0.06

CCCN(CCC)CCc1ccc(OC)c(OCCc2ccccc2)c1 [NE-100]
effect on fluvoxamine's reversal of OR deficits (mice; sigma1 receptor antagonist given with fluvoxamine): blocked this effect

Fc1ccc([C@@H]2CCNC[C@H]2COc2ccc3c(c2)OCO3)cc1 [paroxetine]
effect on deficits in OR performance (mice): but not paroxetine reversed deficits
effect on subPCP-induced impairments in OR performance (mice; single supra-pharmacological dose 10 mg/kg): improved

CN(C)CCC[C@@]1(c2ccc(F)cc2)OCc2cc(C#N)ccc21 [escitalopram]
Ki (sigma 1 receptors): ~100 nM
trials to criterion vs vehicle/vehicle or PCP/vehicle, EDR discrimination (Long-Evans rats [1]; acute 0.5 mg/kg 1 h s.c.): did not differ
trials to criterion vs PCP/vehicle, ED discrimination (Long-Evans rats [1]; acute 0.5 mg/kg 1 h s.c., p < 0.001): significant reductions

C[C@]12N[C@H](Cc3ccccc31)c1ccccc12 [MK-801]
GABAA receptor binding ([3H]-muscimol, [3H]-flunitrazepam) (GABAA receptor [3]): significant increase

NC(=O)C[S+]([O-])C(c1ccccc1)c1ccccc1 (centres unmarked) [modafinil, Modafinil]
reversal of subPCP-induced impairment, ED discrimination (trials to criterion) (Long-Evans rats [1]; [5]): significantly reversed
reversal of subPCP-induced impairment, EDR discrimination (trials to criterion) (Long-Evans rats [1]; [5]): neither acute vortioxetine nor modafinil significantly reversed
trials to criterion vs PCP/vehicle, ED discrimination (Long-Evans rats [1]; ondansetron/escitalopram study, 64 mg/kg 30 min p.o., p < 0.001): significant reductions
trials to criterion vs vehicle/vehicle or PCP/vehicle, EDR discrimination (Long-Evans rats [1]; ondansetron/escitalopram study, 64 mg/kg 30 min p.o., p < 0.05): significantly fewer trials
AST performance in subPCP-treated rats, ED (Long-Evans rats [1]; [6]): significantly improved performance
AST performance in subPCP-treated rats, EDR (Long-Evans rats [1]; [6]): significantly improved performance

FC(F)c1ncn2c1Cn1ncnc1-c1cc(Br)ccc1-2 [RO4938581]
attenuation of subPCP-induced impairment, ED discrimination of the AST (Long-Evans rats [4]): significantly attenuated
attenuation of subPCP-induced impairment, EDR discrimination of the AST (Long-Evans rats [4]): significantly attenuated

C[C@H](NC[C@H](O)CP(=O)(O)CC1CCCCC1)c1ccc(Cl)c(Cl)c1 [[^3H]CGP54626]
GABAB receptors Bmax (GABAB receptor; treatment group PCP/Veh): 414 ± 33^a fmol/mg
GABAB receptors Bmax (GABAB receptor; treatment group PCP/Vor): 342 ± 27^a,c fmol/mg
GABAB receptors Bmax (GABAB receptor; treatment group Veh/Veh): 541 ± 38 fmol/mg
GABAB receptors Bmax (GABAB receptor; treatment group Veh/Vor): 475 ± 34 fmol/mg
GABAB receptors pKD ([3H]CGP54626) (GABAB receptor; treatment group PCP/Veh): 8.7 ± 0.08
GABAB receptors pKD ([3H]CGP54626) (GABAB receptor; treatment group PCP/Vor): 8.7 ± 0.06
GABAB receptors pKD ([3H]CGP54626) (GABAB receptor; treatment group Veh/Veh): 8.6 ± 0.04
GABAB receptors pKD ([3H]CGP54626) (GABAB receptor; treatment group Veh/Vor): 8.6 ± 0.08

Source: paper PMC5845537 (Frontiers in Pharmacology, 2018)
